Test results reported in US9744164B2, “Neuroprotective polyphenol analogs” (Salk Institute for Biological Studies, priority 2011, dated 2017).

Columns and labels:
[1] = test system: HT22 cells; assay: in vitro ischemia assay (HT22 cell IAA assay); assay type: cell-based, mouse; conditions: for EC50 in vitro ischemia: HT22 cells, 20 μM IAA 2 hr, viability by MTT after 24 hr, 'no' = no protection; for improvement of neuroprotective activity/potency over Fisetin: relative to Fisetin, in vitro ischemia
Method: For these studies, cultured HT22 mouse hippocampal cells were used as an in vitro stroke assay. HT22 cells were treated with iodoacetic acid (IAA), an irreversible inhibitor of glyceraldehyde 3-phosphate dehydrogenase (G3PDH) for 2 hr alone or in the presence of varying concentrations of Fisetin. G3PDH is an enzyme of the glycolysis pathway, which catalyzes the synthesis of 1,3-bisphosphoglycerate, a “high energy” intermediate used for the synthesis of ATP. Cell survival was measured using a standard colorimetric MTT (3-(4,5-dimethylthiazol-2-yl)-2,5-diphenyltetrazolium bromide) assay for cell survival MTT is a pale yellow substrate that is cleaved by living cells to yield a dark blue formazan product.
Cytotoxicity assay. Cell viability was determined by a modified version of 3-(4,5-dimethylthiazol-2-yl)-2,5-diphenyl tetrazolium bromide (MTT) assay based on the standard procedure (Maher, et al., Brain Research. (2007), supra). Cells were seeded onto 96-well microtiter plates at a density of 5×10^3 cells per well. For the in vitro ischemia assay, the next day, the medium was replaced with DMEM supplemented with 7.5% DFCS and the cells were treated with 20 μM iodoacetic acid (IAA) alone or in the presence of the different derivatives. After 2 hr the medium in each well was aspirated and replaced with fresh medium without IAA but containing the derivatives. 20 hr later, the medium in each well was aspirated and replaced with fresh medium containing 2.5 μg/ml MTT. After 4 hr of incubation at 37° C., the cells were solubilized with 100 μl of a solution containing 50% dimethylformamide and 20% SDS (pH 4.7). The absorbance at 570 nm was measured on the following day with a microplate reader (Molecular Devices). Results were confirmed by visual inspection of the wells. Controls included compound alone to test for toxicity and compound with no cells to test for interference with the assay chemistry.
For a primary screen, an in vitro ischemia model in combination with the HT22 nerve cell line (Maher, et al., Brain Research. (2007) 1173, 117-125) was chosen. […] To induce ischemia in the HT22 cells we used iodoacetic acid (IAA), a well-known, irreversible inhibitor of the glycolytic enzyme glyceraldehyde 3-phosphate dehydrogenase (G3PDH) (Winkler, et al., Exp. Eye Res. (2003) 76, 715-723). IAA has been used in a number of other studies to induce ischemia in nerve cells (Reshef, et al., Neurosci. Lett. (1997) 238, 37-40; Sperling, et al., Neursci. Lett. (2003) 351, 137-140; Rego, et al., Neurochem. Res. (1999) 24, 351-358; Sigalov, et al,. J. Mol. Neurosci. (2000) 15, 147-154; and Reiner, et al., Neurosci. Lett. (1990) 119, 175-178), including several recent screens for neuroprotective molecules (Biraboneye, et al., J. Med. Chem. (2009) 52 (14), 4358-4369; Biraboneye, et al., Chem. Med. Chem. (2010) 5 (1), 79-85). The changes following IAA treatment of neural cells are very similar to those seen in animal models of ischemic stroke (Lipton, et al., Physiol. Rev. (1999) 79, 1431-1568) and include alterations in membrane potential (Reiner, et al., Neurosci. Lett. (1990) 119, 175-178), breakdown of phospholipids (Taylor, et al., J. Pharmacol. Exp. Ther. (1996) 276, 1224-1231), loss of ATP (Winkler, et al., Exp. Eye Res. (2003) 76, 715-723; Sperling, et al., Neursci. Lett. (2003) 351, 137-140) and an increase in reactive oxygen species (ROS) (Taylor, et al., J. Pharmacol. Exp. Ther. (1996), supra; and Sperling, et al., Neursci. Lett. (2003) 351, 137-140).
The roles of the four different hydroxyl groups in the activity of Fisetin were studied. […] Cell viability was determined after 24 hr by the MTT assay. The ability to maintain GSH (GSH) was determined by treating HT22 cells with different doses of each derivative (1-10 μM) in the presence of 5 mM glutamate. After 24 hr cell extracts were prepared and analyzed for total GSH. Fisetin (10 μM) was used as a positive control. […]

[2] = test system: N9 microglial cells; assay: anti-inflammatory assay, LPS-induced microglial activation (NO release); assay type: cell-based, mouse; conditions: bacterial lipopolysaccharide, derivative 1-10 μM, 24 hr
Method: Anti-inflammatory assay. Mouse N9 microglial cells plated in DME with 7.5% DFCS were treated with 10 μg/ml bacterial lipopolysaccharide (Sigma) alone or in the presence of the Fisetin derivatives (1-10 μM) or Fisetin (10 μM) as a positive control. After 24 hr the medium was removed, spun briefly to remove floating cells and 100 μl assayed for NO using 100 μl of the Griess Reagent (Sigma) in a 96 well plate. After incubation for 10 min at room temperature the absorbance at 550 nm was read on a microplate reader.
Three secondary screens allowed assessment of three key activities of Fisetin that are highly relevant to stroke, as well as other neurological disorders: maintenance of glutathione (GSH), the major endogenous cellular antioxidant, inhibition of LPS-induced microglial activation, an indicator of anti-inflammatory activity and PC12 cell differentiation, a measure of neurotrophic activity. All of these activities are relevant to the nerve cell loss seen in stroke (Gelderblom, et al., Stroke. 2009, 40 (5), 1849-1857; Pandya, et al., Cent. Nerv. Syst. Agents. Med. Chem. (2011) Apr. 27; Lewerenz, et al., J. Neurochem. (2010) 113 (2), 502-504). […] To assess GSH maintenance, total intracellular GSH levels after a 24 hr treatment with the compound both in the absence and presence of glutamate, an inducer of GSH loss and oxidative stress (Tan, et al., Curr. Top. Med. Chem. (2001) 1, 497-506; Maher, et al., Free Radical Research. (2006) 40 (10), 1105-1111) was measured Inhibition of LPS-induced microglial activation was determined by treating N9 mouse microglial cells with LPS alone and in the presence of the compounds and assaying NO release into the medium 24 hr later (Zheng, et al., Int. Immunopharmacol. (2008) 8, (3), 484-494). PC12 cell differentiation was determined by treating PC12 cells with the compounds and looking at neurite outgrowth after 24 hr. In all cases, Fisetin was used as a positive control (Sagara, et al., J. Neurochem. (2004) 90, 1144-1155).
The roles of the four different hydroxyl groups in the activity of Fisetin were studied. […] Cell viability was determined after 24 hr by the MTT assay. The ability to maintain GSH (GSH) was determined by treating HT22 cells with different doses of each derivative (1-10 μM) in the presence of 5 mM glutamate. After 24 hr cell extracts were prepared and analyzed for total GSH. Fisetin (10 μM) was used as a positive control. The ability to induce PC12 cell differentiation (PC12 diff'n) was determined by treating PC12 cells in N2 medium with different doses of each derivative (1-10 μM) for 24 hr. Differentiation was assessed by visual inspection with Fisetin (10 μM) as a positive control. Anti-inflammatory activity (microglia) was assessed in N9 microglial cells treated with bacterial lipopolysaccharide alone or in the presence different doses of each derivative (1-10 μM) for 24 hr. Fisetin was used as a positive control. TEAC values, a measure of direct antioxidant activity, were determined using the ABTS+ decolorization assay.

Structure (SMILES) | further enhancement of neuroprotective activity ([1]; benzene ring added to A ring, relative to CMS-04P) [fold] | microglia (anti-inflammatory activity) [2] [%] | EC50 in vitro ischemia [1] | improvement of neuroprotective activity/potency over Fisetin [1] | enhancement of neuroprotective activity relative to CMS-027 ([1]; relative to CMS-027) [fold]
O=c1c(O)c(-c2ccc(O)c(O)c2)oc2c1ccc1ccccc12 [CMS-040, 2-(3,4-dihydroxyphenyl)-3-hydroxy-4H-benzo[h]chromen-4-one] | ~5.5 | 91 |  |  | 
COc1ccc(-c2cc(OC)c3ccccc3n2)cc1O [CMS-001, 4-methoxy-2-(3-hydroxy,4-methoxyphenyl)quinoline] |  | 69 | no |  | 
COc1cc(-c2ccc(N3CCCC3)cc2)nc2ccccc12 [CMS-110, 4-methoxy-2-(4-(pyrrolidin-1-yl)phenyl)quinoline] |  | 67 | no |  | 
O=c1cc(-c2ccc(O)c(O)c2)oc2ccccc12 [PM-001] |  |  |  | 6 fold | 
CCOc1ccc(/C=C/C(=O)c2cc(C)c(C)cc2O)cc1OCC [CMS-013, (E)-3-(3,4-diethoxyphenyl)-1-(2-hydroxy-4,5-dimethylphenyl)prop-2-en-1-one] |  | 56 | no |  | 
Cc1cc2oc(-c3ccc(O)c(O)c3)cc(=O)c2cc1C [CMS-028, 2-(3,4-dihydroxyphenyl)-6,7-dimethyl-4H-chromen-4-one] |  | 93 |  |  | 2
COc1cc(-c2ccc([N+](=O)[O-])c(O)c2)nc2ccccc12 [CMS-111, 4-methoxy-2-(3-hydroxy-4-nitrophenyl)quinoline] |  | 25 | no |  | 
O=c1cc(-c2ccc(O)c(O)c2)oc2ccc3ccccc3c12 [PM-003] |  |  |  | ~40 fold | 
CCOc1ccc(-c2cc(=O)c3ccc4ccccc4c3o2)cc1OCC [CMS-038, 2-(3,4-diethoxyphenyl)-4H-benzo[h]chromen-4-one] |  | 2 | no |  | 
CCOc1ccc(-c2cc(=O)c3cc(C)c(C)cc3o2)cc1OCC [CMS-018, 2-(3,4-diethoxyphenyl)-6,7-dimethyl-4H-chromen-4-one] |  | 2 | no |  | 
Cc1ccc2oc(-c3ccc(O)c(O)c3)c(O)c(=O)c2c1 [PM-010, 2-(3,4-dihydroxyphenyl)-3-hydroxy-6-methyl-4H-chromen-4-one] |  |  |  | 10-100 fold | 
CCOc1ccc(/C=C/C(=O)c2ccc3ccccc3c2O)cc1OCC [CMS-032, (E)-3-(3,4-diethoxyphenyl)-1-(1-hydroxynaphthalen-2-yl)prop-2-en-1-one] |  | 5 | no |  | 
O=c1cc(-c2ccc(O)c(O)c2)oc2c1ccc1ccccc12 [CMS-02P, reference compound] |  | 55 |  | ~40 fold | 
CCOc1ccc(-c2cc(OC)c3ccccc3n2)cc1OCC [CMS-004, 4-methoxy-2-(3,4-diethoxyphenyl)quinoline] |  | 76 | no |  | 
COc1cc(-c2ccc(O)cc2)nc2ccccc12 [CMS-022, 4-methoxy-2-(4-hydroxyphenyl)quinoline] |  | 4 | no |  | 
